Laboratory results: the supplement of paper PMC4862054

Key:
Details in all cases: incubation time: 72 h
BT-474 [1] = experiment: normalised response (% of control), CellTox Green; higher = less cell death (100 = DMSO, 0 = benzethonium chloride kill control)
Summary of the method: (§1)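 CellTox Green fluorescence (485/520 nm) and, after 10 min at room temperature, CellTiter-Glo luminescence were read from breast cancer cell lines incubated 72 h in 384-well plates. Cells were seeded as 20 µl suspension onto compound at 5 concentrations in 10-fold steps over a 10,000-fold range chosen per compound. Each plate was normalised to 0.1 % DMSO (100) and a positive kill control (0). Values are normalised signals, one per concentration.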

BT-549 [2] = experiment: as above
Summary of the method: as §1

CAL-120 [3] = experiment: as above
Summary of the method: as §1

CAL-148 [4] = experiment: as above
Summary of the method: as §1

CAL-51 [5] = experiment: as above
Summary of the method: as §1

CAL-85-1 [6] = experiment: as above
Summary of the method: as §1

DU-4475 [7] = experiment: as above
Summary of the method: as §1

HCC1143 [8] = experiment: as above
Summary of the method: as §1

HCC1599 [9] = experiment: as above
Summary of the method: as §1

HCC1937 [10] = experiment: as above
Summary of the method: as §1

HDQ-P1 [11] = experiment: as above
Summary of the method: as §1

Hs578T [12] = experiment: as above
Summary of the method: as §1

MCF-10A [13] = experiment: as above
Summary of the method: as §1

MDA-MB-231 [14] = experiment: as above
Summary of the method: as §1

MDA-MB-436 [15] = experiment: as above
Summary of the method: as §1

MDA-MB-453 [16] = experiment: as above
Summary of the method: as §1

MDA-MB-468 [17] = experiment: as above
Summary of the method: as §1

MFM-223 [18] = experiment: as above
Summary of the method: as §1

BT-474 [19] = experiment: normalised response (% of control), CellTiter-Glo; higher = more viable cells (100 = DMSO, 0 = benzethonium chloride kill control)
Experimental: (§2)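 DSRT, 72 h incubation, CellTox Green / CellTiter-Glo readout. Signal is normalised to DMSO and benzethonium chloride controls. Value is the normalised response at dose 3.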

BT-549 [20] = experiment: as above
Experimental: as §2

CAL-120 [21] = experiment: as above
Experimental: as §2

CAL-148 [22] = experiment: as above
Experimental: as §2

CAL-51 [23] = experiment: as above
Experimental: as §2

CAL-85-1 [24] = experiment: as above
Experimental: as §2

DU-4475 [25] = experiment: as above
Experimental: as §2

HCC1143 [26] = experiment: as above
Experimental: as §2

HCC1599 [27] = experiment: as above
Experimental: as §2

HCC1937 [28] = experiment: as above
Experimental: as §2

HDQ-P1 [29] = experiment: as above
Experimental: as §2

Hs578T [30] = experiment: as above
Experimental: as §2

MCF-10A [31] = experiment: as above
Experimental: as §2

MDA-MB-231 [32] = experiment: as above
Experimental: as §2

MDA-MB-436 [33] = experiment: as above
Experimental: as §2

MDA-MB-453 [34] = experiment: as above
Experimental: as §2

MDA-MB-468 [35] = experiment: as above
Experimental: as §2

MFM-223 [36] = experiment: as above
Experimental: as §2

SK-BR-3 = experiment: as above
Experimental: as §2

| SMILES | normalised response (BT-474 [1]) | normalised response (BT-549 [2]) | normalised response (CAL-120 [3]) | normalised response (CAL-148 [4]) | normalised response (CAL-51 [5]) | normalised response (CAL-85-1 [6]) | normalised response (DU-4475 [7]) | normalised response (HCC1143 [8]) | normalised response (HCC1599 [9]) | normalised response (HCC1937 [10]) | normalised response (HDQ-P1 [11]) | normalised response (Hs578T [12]) | normalised response (MCF-10A [13]) | normalised response (MDA-MB-231 [14]) | normalised response (MDA-MB-436 [15]) | normalised response (MDA-MB-453 [16]) | normalised response (MDA-MB-468 [17]) | normalised response (MFM-223 [18]) | normalised response (BT-474 [19]) | normalised response (BT-549 [20]) | normalised response (CAL-120 [21]) | normalised response (CAL-148 [22]) | normalised response (CAL-51 [23]) | normalised response (CAL-85-1 [24]) | normalised response (DU-4475 [25]) | normalised response (HCC1143 [26]) | normalised response (HCC1599 [27]) | normalised response (HCC1937 [28]) | normalised response (HDQ-P1 [29]) | normalised response (Hs578T [30]) | normalised response (MCF-10A [31]) | normalised response (MDA-MB-231 [32]) | normalised response (MDA-MB-436 [33]) | normalised response (MDA-MB-453 [34]) | normalised response (MDA-MB-468 [35]) | normalised response (MFM-223 [36]) | normalised response (SK-BR-3) |
| --- | --- | --- | --- | --- | --- | --- | --- | --- | --- | --- | --- | --- | --- | --- | --- | --- | --- | --- | --- | --- | --- | --- | --- | --- | --- | --- | --- | --- | --- | --- | --- | --- | --- | --- | --- | --- | --- |
| Cc1ccc(F)c(NC(=O)Nc2ccc(-c3cccc4[nH]nc(N)c34)cc2)c1 [Linifanib] (10 nM) | 99.7% | 96.7% | 99.2% | 108% | 109% | 97.2% | 102% | 108% | 111% | 104% | 112% | 87% | 56.1% | 91.7% | 72.8% | 108% | 121% | 108% | 107% | 96.7% | 102% | 112% | 102% | 92.7% | 105% | 107% | 108% | 99.5% | 97.3% | 105% | 110% | 111% | 108% | 97.2% | 106% | 106% | 103% |
| S=c1[nH]cnc2nc[nH]c12 [Mercaptopurine] (100 nM) | 91.2% | 94.6% | 98.4% | 95.9% | 94.5% | 108% | 98.8% | 91.9% | 98% | 101% | 66.2% | 92.4% | 99.5% | 80.6% | 102% | 103% | 134% | 82.7% | 95.1% | 104% | 92.5% | 81.7% | 96.9% | 90.8% | 96.8% | 104% | 91.3% | 94% | 105% | 96.6% | 94.6% | 101% | 96.1% | 95.5% | 88.4% | 98.5% | 98.3% |
| Clc1ccc(C(c2ccccc2Cl)C(Cl)Cl)cc1 (configuration not stated) [Mitotane] (100 nM) | 100% | 94.6% | 92% | 101% | 101% | 105% | 97.9% | 92.2% | 100% | 95% | 95.8% | 91.4% | 78.6% | 95.5% | 88.1% | 106% | 120% | 77.9% | 94% | 99.6% | 97.8% | 96.2% | 94.8% | 101% | 97.2% | 100% | 93.7% | 95.4% | 102% | 95.3% | 92.2% | 98.7% | 97.8% | 95.5% | 92.9% | 95.6% | 97.7% |
| C=CC[C@@H]1/C=C(\C)C[C@H](C)C[C@H](OC)[C@H]2O[C@@](O)(C(=O)C(=O)N3CCCC[C@H]3C(=O)O[C@H](/C(C)=C/[C@@H]3CC[C@@H](O)[C@H](OC)C3)[C@H](C)[C@@H](O)CC1=O)[C@H](C)C[C@@H]2OC [Tacrolimus] (100 nM) | 100% | 104% | 100% | 82% | 91% | 93.4% | 100% | 99.5% | 95.4% | 107% | 69.4% | 95.7% | 57.2% | 104% | 103% | 97.8% | 186% | 101% | 100% | 98.2% | 98.8% | 111% | 77.2% | 94.6% | 101% | 101% | 95.9% | 98% | 97.7% | 96.5% | 102% | 110% | 96.4% | 103% | 93% | 106% | 89.7% |
| CO[C@H]1C[C@@H]2CC[C@@H](C)[C@@](O)(O2)C(=O)C(=O)N2CCCC[C@H]2C(=O)O[C@H]([C@H](C)C[C@@H]2CC[C@@H](OC(=O)C(C)(CO)CO)[C@H](OC)C2)CC(=O)[C@H](C)/C=C(\C)[C@@H](O)[C@@H](OC)C(=O)[C@H](C)C[C@H](C)/C=C/C=C/C=C/1C [Temsirolimus] (1 nM) | 89.6% | 109% | 102% | 96.7% | 94.9% | 97.9% | 97.5% | 117% | 109% | 118% | 113% | 66.9% | 99.6% | 94.2% | 99.8% | 100% | 135% | 90.2% | 90.8% | 68.4% | 83.4% | 82.5% | 68.3% | 74.8% | 92.3% | 77.4% | 111% | 77.8% | 94.4% | 69.9% | 102% | 98.8% | 87.2% | 88.4% | 56.3% | 79.6% | 68.7% |
| CC[C@]1(O)C[C@@H]2CN(CCc3c([nH]c4ccccc34)[C@@](C(=O)OC)(c3cc4c(cc3OC)N(C)[C@H]3[C@@](O)(C(=O)OC)[C@H](OC(C)=O)[C@]5(CC)C=CCN6CC[C@]43[C@@H]65)C2)C1 [Vinblastine] (10 nM) | 72.6% | 65.2% | 73.6% | 82.7% | 30.4% | 31.4% | 102% | 92% | 84.7% | 92.3% | 40.4% | 71.2% | 16.4% | -19.5% | 44.7% | 98% | 110% | 69.6% | 58.2% | 39.1% | 51.5% | 70.8% | 58.1% | 29.4% | 96.1% | 48.6% | 70.4% | 71% | 76.1% | 55.4% | 51.6% | 57.8% | 36% | 57.4% | 33.9% | 77.1% | 12.3% |
